Experimental data from patent US11318134B2, “Benzamide compounds” (priority 2018, dated 2022).

Experiments:
Bcl-2 = Bcl-2 (Homo sapiens (Human), UniProt P10415); assay: Bcl-2 HTRF assay (FAM-Bak peptide); format: binding; conditions: HTRF, 4 nM Bcl-2, 100 nM FAM-Bak peptide; read-out: Bc1-2 IC50
Bcl-XL = Bcl-XL (Homo sapiens (Human), UniProt Q07817); assay: Bcl-XL HTRF assay (FAM-Bad peptide); format: binding; conditions: HTRF, 3 nM Bcl-XL, 40 nM FAM-Bad peptide; read-out: Bc1-XL IC50
RS4;11 cells = assay: RS4;11 cell proliferation assay (CellTiter-Glo); format: cell-based; conditions: Homo sapiens, RS4-11, 48 h, read-out: RS4;11 (nM), CTG IC50
NCI-H1963 cells = assay: NCI-H1963 cell proliferation assay (CellTiter-Glo); format: cell-based; conditions: Homo sapiens, NCI-H1963, 72 h, read-out: H1963 (nM), CTG IC50
Procedure: Cell proliferation was measured using the CellTiter-Glo® Luminescent Cell Viability Assay. The assay involved the addition of a single reagent (CellTiter-Glo® Reagent) directly to cells cultured in serum-supplemented medium.
Each compound evaluated was prepared as a DMSO stock solution (10 mM). Compounds were tested in duplicate on each plate, with a 10-point serial dilution curve (1:3 dilution). Compound treatment (1.0 μL) was added from the compound dilution plate to the cell plate. The highest compound concentration was 10 μM (final), with a 0.1% final DMSO concentration. Plates were then incubated at 37° C., 5% CO2. After 48 h of compound treatment for RS4;11 or 72 h for NCI-H1963, cell plates were equilibrated at rt for approximately 30 mins. An equi-volume amount of CellTiter-Glo® Reagent (40 μL) was added to each well. […] Luminescence was recorded using a Envision plate reader according to CellTiter-Glo protocol. IC50 of each compound was calculated using GraphPad Prism by nonlinear regression analysis.

Chain of Bcl-XL (Q07817 whole entry): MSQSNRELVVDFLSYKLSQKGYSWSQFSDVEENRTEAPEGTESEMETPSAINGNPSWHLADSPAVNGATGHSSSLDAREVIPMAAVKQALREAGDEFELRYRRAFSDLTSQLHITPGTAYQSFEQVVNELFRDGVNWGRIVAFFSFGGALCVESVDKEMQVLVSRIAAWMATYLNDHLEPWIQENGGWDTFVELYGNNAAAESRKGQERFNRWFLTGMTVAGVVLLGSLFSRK
Chain of Bcl-2 (P10415 whole entry): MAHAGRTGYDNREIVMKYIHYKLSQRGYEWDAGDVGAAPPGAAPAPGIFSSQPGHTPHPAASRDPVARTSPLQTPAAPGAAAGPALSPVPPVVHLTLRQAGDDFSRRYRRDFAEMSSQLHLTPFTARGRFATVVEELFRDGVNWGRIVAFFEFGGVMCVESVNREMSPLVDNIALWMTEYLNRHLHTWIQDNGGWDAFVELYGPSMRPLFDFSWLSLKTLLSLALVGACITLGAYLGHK

Structure (SMILES)	IC50 (Bcl-2) [nM]	IC50 (Bcl-XL) [nM]	IC50 (RS4;11 cells) [nM]	IC50 (NCI-H1963 cells) [nM]
CN(CCO)CC[C@H](CSc1ccccc1)Nc1ccc(S(=O)(=O)NC(=O)c2ccc(N3CCN(CC4=C(C56CC(C(F)F)(C5)C6)CC(C)(C)CC4)CC3)cc2)cc1S(=O)(=O)C(F)(F)F [Example 60, (R)-4-(4-((2-(3-(difluoromethyl)bicyclo[1.1.1]pentan-1-yl)-4,4-dimethylcyclohex-1-en-1-yl)methyl)piperazin-1-yl)-N-((4-((4-((2-hydroxyethyl)(methyl)amino)-1-(phenylthio)butan-2-yl)amino)-3-((trifluoromethyl)sulfonyl)phenyl)sulfonyl)benzamide]	≤ 10	≤ 10	< 100	500 to 1000
CC1(C)CCC(CN2CCN(c3ccc(C(=O)NS(=O)(=O)c4ccc(N[C@H](CCN5CCC(O)CC5)CSc5ccccc5)c(S(=O)(=O)C(F)(F)F)c4)cc3)CC2)=C(C23CC(C(F)F)(C2)C3)C1 [Example 61, (R)-4-(4-((2-(3-(Difluoromethyl)bicyclo[1.1.1]pentan-1-yl)-4,4-dimethylcyclohex-1-en-1-yl)methyl)piperazin-1-yl)-N-((4-((4-(4-hydroxypiperidin-1-yl)-1-(phenylthio)butan-2-yl)amino)-3-((trifluoromethyl)sulfonyl)phenyl)sulfonyl)benzamide]	≤ 10	≤ 10	< 100	< 500
CN(C)C1CCN(CC[C@H](CSc2ccccc2)Nc2ccc(S(=O)(=O)NC(=O)c3ccc(N4CCN(CC5=C(C67CC(C(F)F)(C6)C7)CC(C)(C)CC5)CC4)cc3)cc2S(=O)(=O)C(F)(F)F)CC1 [Example 62, (R)-4-(4-((2-(3-(Difluoromethyl)bicyclo[1.1.1]pentan-1-yl)-4,4-dimethylcyclohex-1-en-1-yl)methyl)piperazin-1-yl)-N-((4-((4-(4-(dimethylamino)piperidin-1-yl)-1-(phenylthio)butan-2-yl)amino)-3-((trifluoromethyl)sulfonyl)phenyl)sulfonyl)benzamide]	≤ 10	≤ 10	100 to 1000	< 500
CN(C)CC[C@H](CSc1ccccc1)Nc1ccc(S(=O)(=O)NC(=O)c2ccc(N3CCN(CC4=C(C56CC(C(F)F)(C5)C6)CC(C)(C)CC4)CC3)cc2)cc1S(=O)(=O)C(F)(F)F [Example 63, (R)-4-(4-((2-(3-(Difluoromethyl)bicyclo[1.1.1]pentan-1-yl)-4,4-dimethylcyclohex-1-en-1-yl)methyl)piperazin-1-yl)-N-((4-((4-(dimethylamino)-1-(phenylthio)butan-2-yl)amino)-3-((trifluoromethyl)sulfonyl)phenyl)sulfonyl)benzamide]	≤ 10	≤ 10	< 100	< 500
CC1(C)CCC(CN2CCN(c3ccc(C(=O)NS(=O)(=O)c4ccc(N[C@H](CCN5CCNCC5)CSc5ccccc5)c(S(=O)(=O)C(F)(F)F)c4)cc3)CC2)=C(C23CC(C(F)F)(C2)C3)C1 [Example 64, (R)-4-(4-((2-(3-(difluoromethyl)bicyclo[1.1.1]pentan-1-yl)-4,4-dimethylcyclohex-1-en-1-yl)methyl)piperazin-1-yl)-N-((4-((1-(phenylthio)-4-(piperazin-1-yl)butan-2-yl)amino)-3-((trifluoromethyl)sulfonyl)phenyl)sulfonyl)benzamide]	≤ 10	≤ 10	100 to 1000	> 1000
CCN(CCO)CC[C@H](CSc1ccccc1)Nc1ccc(S(=O)(=O)NC(=O)c2ccc(N3CCN(CC4=C(C56CC(C(F)F)(C5)C6)CC(C)(C)CC4)CC3)cc2)cc1S(=O)(=O)C(F)(F)F [Example 70, (R)-4-(4-((2-(3-(difluoromethyl)bicyclo[1.1.1]pentan-1-yl)-4,4-dimethylcyclohex-1-en-1-yl)methyl)piperazin-1-yl)-N-((4-((4-(ethyl(2-hydroxyethyl)amino)-1-(phenylthio)butan-2-yl)amino)-3-((trifluoromethyl)sulfonyl)phenyl)sulfonyl)benzamide]	≤ 10	≤ 10	100 to 1000	> 1000
